# Measurements from US7244431B2, “Allergy vaccines and their preparation” (priority 2000, dated 2007).
# Key:
# [1] = system: birch pollen allergic patients; test: Skin prick testing of allergic patients; format: in vivo, human; details: 100 μg/ml
# Description: SPTs were performed on the individuals forearms as described ([…]. et al. (1997) J. Clin Invest. 99, 1673-168; Dreborg S: (1989) J. Am. Acad. DerMatol. 21, 820-821). […] In addition standardized skin prick solutions (birch pollen extract and histamine) (Allergopharma, Reinbek, Germany) were tested. Reactions were recorded 20 minutes after SPT by photography and by transferring the ballpoint pen-surrounded wheal area with a scotch tape to paper.
# [2] = system: IgE antibodies in sera from birch pollen allergic patients; test: ELISA detection of peptide- and rBet v 1-specific IgE antibodies; format: binding, human
# Procedure, shortened: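 IgE binding detected by 1:1000 alkaline-phosphatase mouse monoclonal anti-human IgE after overnight 4 °C incubation with 1:3-diluted sera. Sera came from 60 birch pollen allergic patients (25 male, 35 female, age 19–60) and a non-atopic control.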
# [3] = NMR analysis for residual secondary or tertiary structure; format: physicochemical; details: water solution
# Description: NMR was then used to check for residual secondary or tertiary structure. Compared to other spectroscopical approaches, this technique has the advantage that it provides positional information along the sequence.
# Peptides were examined for tertiary and/or secondary structure by one and two-dimensional nuclear magnetic resonance (NMR) on a UNITY VARIAN 600 MHz spectrometer equipped with z-shielded gradient coils using 0.8-1.0 mM samples in 90% H2O/10% D2O, 20 mM potassium phosphate buffer pH 7.0, at 20° C. […] Mixing times used were 70 ms and 150 or 200 ms for TOCSY and NOESY experiments, respectively.
# The absence of ring current shifted peaks in the region of the spectra below 0.5 ppm typical of well folded proteins is also a feature common to the spectra of the Bet v 1 peptides (data not shown). […] This peptide (P5), that in the Bet v 1 structure spans the whole C-terminal helix probably tends to form helical structures that aggregate in water solution.
sequence,measurement,setting,value
"CKAEQVKASKEMGETLLRAVESYLLAHSDAYN [Peptide P5, Bet v 1-derived synthetic peptide, position aa 130-160, one cysteine added]",mean wheal diameter,[1]; individual 1,0 mm
same,mean wheal diameter,[1]; individual 2,0 mm
same,mean wheal diameter,[1]; individual 3,0 mm
same,mean wheal diameter,[1]; individual 4,0 mm
same,mean wheal diameter,[1]; individual 5,0 mm
same,mean wheal diameter,"[1]; individual 6 (allergic, without birch pollen allergy)",0 mm
same,IgE (OD),"[2]; serum of NHS, non-allergic control individual",— (Dashes indicate reactivities below the cut-off level (OD=0.050))
same,IgE (OD),[2]; serum of patient 1,— (Dashes indicate reactivities below the cut-off level (OD=0.050))
same,IgE (OD),[2]; serum of patient 2,— (Dashes indicate reactivities below the cut-off level (OD=0.050))
same,IgE (OD),[2]; serum of patient 3,— (Dashes indicate reactivities below the cut-off level (OD=0.050))
same,IgE (OD),[2]; serum of patient 4,— (Dashes indicate reactivities below the cut-off level (OD=0.050))
same,IgE (OD),[2]; serum of patient 5,— (Dashes indicate reactivities below the cut-off level (OD=0.050))
same,IgE (OD),[2]; serum of patient 6,— (Dashes indicate reactivities below the cut-off level (OD=0.050))
same,IgE (OD),[2]; serum of patient 7,— (Dashes indicate reactivities below the cut-off level (OD=0.050))
same,IgE (OD),[2]; serum of patient 8,— (Dashes indicate reactivities below the cut-off level (OD=0.050))
same,IgE (OD),[2]; serum of patient 9,— (Dashes indicate reactivities below the cut-off level (OD=0.050))
same,IgE (OD),[2]; serum of patient 10,— (Dashes indicate reactivities below the cut-off level (OD=0.050))
same,IgE (OD),[2]; serum of patient 11,— (Dashes indicate reactivities below the cut-off level (OD=0.050))
same,IgE (OD),[2]; serum of patient 12,— (Dashes indicate reactivities below the cut-off level (OD=0.050))
same,IgE (OD),[2]; serum of patient 13,— (Dashes indicate reactivities below the cut-off level (OD=0.050))
same,IgE (OD),[2]; serum of patient 14,— (Dashes indicate reactivities below the cut-off level (OD=0.050))
same,IgE (OD),[2]; serum of patient 15,— (Dashes indicate reactivities below the cut-off level (OD=0.050))
same,IgE (OD),[2]; serum of patient 16,— (Dashes indicate reactivities below the cut-off level (OD=0.050))
same,IgE (OD),[2]; serum of patient 17,— (Dashes indicate reactivities below the cut-off level (OD=0.050))
same,IgE (OD),[2]; serum of patient 18,— (Dashes indicate reactivities below the cut-off level (OD=0.050))
same,IgE (OD),[2]; serum of patient 19,— (Dashes indicate reactivities below the cut-off level (OD=0.050))
same,IgE (OD),[2]; serum of patient 20,— (Dashes indicate reactivities below the cut-off level (OD=0.050))
same,IgE (OD),[2]; serum of patient 21,— (Dashes indicate reactivities below the cut-off level (OD=0.050))
same,IgE (OD),[2]; serum of patient 22,— (Dashes indicate reactivities below the cut-off level (OD=0.050))
same,IgE (OD),[2]; serum of patient 23,— (Dashes indicate reactivities below the cut-off level (OD=0.050))
same,IgE (OD),[2]; serum of patient 24,— (Dashes indicate reactivities below the cut-off level (OD=0.050))
same,IgE (OD),[2]; serum of patient 25,— (Dashes indicate reactivities below the cut-off level (OD=0.050))
same,IgE (OD),[2]; serum of patient 26,— (Dashes indicate reactivities below the cut-off level (OD=0.050))
same,IgE (OD),[2]; serum of patient 27,— (Dashes indicate reactivities below the cut-off level (OD=0.050))
same,IgE (OD),[2]; serum of patient 28,— (Dashes indicate reactivities below the cut-off level (OD=0.050))
same,IgE (OD),[2]; serum of patient 29,— (Dashes indicate reactivities below the cut-off level (OD=0.050))
same,IgE (OD),[2]; serum of patient 30,— (Dashes indicate reactivities below the cut-off level (OD=0.050))
same,IgE (OD),[2]; serum of patient 31,— (Dashes indicate reactivities below the cut-off level (OD=0.050))
same,IgE (OD),[2]; serum of patient 32,— (Dashes indicate reactivities below the cut-off level (OD=0.050))
same,IgE (OD),[2]; serum of patient 33,— (Dashes indicate reactivities below the cut-off level (OD=0.050))
same,IgE (OD),[2]; serum of patient 34,— (Dashes indicate reactivities below the cut-off level (OD=0.050))
same,IgE (OD),[2]; serum of patient 35,— (Dashes indicate reactivities below the cut-off level (OD=0.050))
same,IgE (OD),[2]; serum of patient 36,— (Dashes indicate reactivities below the cut-off level (OD=0.050))
same,IgE (OD),[2]; serum of patient 37,— (Dashes indicate reactivities below the cut-off level (OD=0.050))
same,IgE (OD),[2]; serum of patient 38,— (Dashes indicate reactivities below the cut-off level (OD=0.050))
same,IgE (OD),[2]; serum of patient 39,— (Dashes indicate reactivities below the cut-off level (OD=0.050))
same,IgE (OD),[2]; serum of patient 40,— (Dashes indicate reactivities below the cut-off level (OD=0.050))
same,IgE (OD),[2]; serum of patient 41,— (Dashes indicate reactivities below the cut-off level (OD=0.050))
same,IgE (OD),[2]; serum of patient 42,— (Dashes indicate reactivities below the cut-off level (OD=0.050))
same,IgE (OD),[2]; serum of patient 43,— (Dashes indicate reactivities below the cut-off level (OD=0.050))
same,IgE (OD),[2]; serum of patient 44,— (Dashes indicate reactivities below the cut-off level (OD=0.050))
same,IgE (OD),[2]; serum of patient 45,— (Dashes indicate reactivities below the cut-off level (OD=0.050))
same,IgE (OD),[2]; serum of patient 46,— (Dashes indicate reactivities below the cut-off level (OD=0.050))
same,IgE (OD),[2]; serum of patient 47,— (Dashes indicate reactivities below the cut-off level (OD=0.050))
same,IgE (OD),[2]; serum of patient 48,— (Dashes indicate reactivities below the cut-off level (OD=0.050))
same,IgE (OD),[2]; serum of patient 49,— (Dashes indicate reactivities below the cut-off level (OD=0.050))
same,IgE (OD),[2]; serum of patient 50,— (Dashes indicate reactivities below the cut-off level (OD=0.050))
same,IgE (OD),[2]; serum of patient 51,— (Dashes indicate reactivities below the cut-off level (OD=0.050))
same,IgE (OD),[2]; serum of patient 52,— (Dashes indicate reactivities below the cut-off level (OD=0.050))
same,IgE (OD),[2]; serum of patient 53,— (Dashes indicate reactivities below the cut-off level (OD=0.050))
same,IgE (OD),[2]; serum of patient 54,— (Dashes indicate reactivities below the cut-off level (OD=0.050))
same,IgE (OD),[2]; serum of patient 55,— (Dashes indicate reactivities below the cut-off level (OD=0.050))
same,IgE (OD),[2]; serum of patient 56,— (Dashes indicate reactivities below the cut-off level (OD=0.050))
same,IgE (OD),[2]; serum of patient 57,— (Dashes indicate reactivities below the cut-off level (OD=0.050))
same,IgE (OD),[2]; serum of patient 58,— (Dashes indicate reactivities below the cut-off level (OD=0.050))
same,IgE (OD),[2]; serum of patient 59,— (Dashes indicate reactivities below the cut-off level (OD=0.050))
same,IgE (OD),[2]; serum of patient 60,— (Dashes indicate reactivities below the cut-off level (OD=0.050))
same,aggregation (NMR),[3],unusually broad resonances suggesting aggregation
